Experimental data reported in US8426408B2, “Pyrimidine inhibitors of kinases” (AbbVie Inc., priority 2009, dated 2013).

How the values were obtained:
KDR [1] = molecular target: T1, KDR (Homo sapiens, UniProt P35968); assay: KDR HTRF in vitro kinase assay; type: biochemical; parameters: purified enzyme (His6-KDR 789-1354, MW 63 kD); His6 (N); conditions: 1 mM ATP; read-out: KDR enzyme inhibition data (Ki)
In short: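 His6-KDR 789-1354 (7 ng/well) with 0.5 μM biotinylated peptide substrate and 1 mM ATP in HEPES pH 7.1, MgCl2/MnCl2, 60 min at room temperature. EDTA-quenched, detected by streptavidin-XL-665 plus Eu-kryptate anti-phosphotyrosine HTRF after 3 h; IC50 from 620/665 nm ratio.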
Target sequence in this assay (P35968 789-1354): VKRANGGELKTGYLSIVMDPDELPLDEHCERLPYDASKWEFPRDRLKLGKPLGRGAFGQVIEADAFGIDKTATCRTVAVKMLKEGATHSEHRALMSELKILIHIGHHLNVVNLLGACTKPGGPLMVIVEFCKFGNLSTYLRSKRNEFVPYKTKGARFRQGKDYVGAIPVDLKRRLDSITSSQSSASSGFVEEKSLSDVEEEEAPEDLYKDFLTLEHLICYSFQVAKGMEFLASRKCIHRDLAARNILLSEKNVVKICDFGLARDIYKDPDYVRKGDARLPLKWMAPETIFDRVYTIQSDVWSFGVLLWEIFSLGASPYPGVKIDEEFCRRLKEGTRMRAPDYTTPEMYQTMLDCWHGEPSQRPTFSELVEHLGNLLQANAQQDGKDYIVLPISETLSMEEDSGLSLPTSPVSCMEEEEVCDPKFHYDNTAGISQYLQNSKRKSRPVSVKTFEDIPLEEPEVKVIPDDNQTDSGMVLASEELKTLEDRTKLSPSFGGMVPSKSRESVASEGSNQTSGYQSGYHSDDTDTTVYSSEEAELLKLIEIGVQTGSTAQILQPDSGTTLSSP

Aurora B = molecular target: T2, Aurora B (Homo sapiens, UniProt Q96GD4); assay: Aurora B enzyme inhibition (time-resolved fluorescence, histone H3 peptide); type: biochemical; conditions: 1 mM ATP
T2 construct: Active Aurora B enzyme (recombinant residues 1-344)
In short: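 Recombinant Aurora B (residues 1-344) with GST-INCENP phosphorylated biotinylated histone H3 (1-21) peptide at 1 mM ATP in HEPES pH 7.4 with MgCl2, orthovanadate and Triton X-100 for 1 h. After EDTA stop, the phosphopeptide was detected by TR-FRET (Eu-cryptate anti-phospho-H3 / SA-APC, 665/615 nm ratio). IC50 from an exponential fit.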

KDR [2] = molecular target: T1, KDR; assay: KDR cellular assay (KDR receptor phosphorylation ELISA); type: cell-based; parameters: expressed in transfected cells; host or cells: 3T3 (embryonic mouse) cells; conditions: KDR transfected 3T3 (embryonic mouse) cells, VEGF stimulated; read-out: IC50 inhibition of KDR phosphorylation
Method: The ability of compounds to inhibit KDR receptor phosphorylation in cells was measured by ELISA following the protocol outlined below.
KDR transfected 3T3 (embryonic mouse) cells added to 96-well tissue culture plates at 20,000 cells/well.
Plates were covered and placed in a 37° C. humidified incubator with 5% CO2 overnight, to allow cells to adhere.
Coating solution was prepared: 500 l/vial PBS was added to 2 vials of anti-KDR antibody, then 1 ml solubilized anti-KDR antibody into 29.0 ml bicarbonate buffer. Coating solution was added to all wells at 150 µl/well (final amount anti-KDR=1 µg/well) and placed at 4° C. overnight.
Blocking solution (2.1 g dry milk+42 ml PBS=5% milk in PBS) was placed on a stir plate for 30 min.
Assay plates were washed twice with PBST, and 200 µl/well blocking solution was added to all wells. Assay plates were covered with plate sealers and placed in a 37° C. microplate chamber until just before cell lysate transfer.
Compound stocks were thawed or prepared in DMSO as 5 mM stocks.
Dilution medium (DM, 1% DMSO in DMEM) and compounds were diluted by half-log increments for concentration response analysis.
Conditioned media was dumped from the tissue culture plates, and plates were blotted dry.
Standard solution in DM, compound dilutions in DM, or DM (for high control, negative control, and reference wells) were added to the tissue culture plates, 25 µl/well. Each pair of tissue culture plates was prepared with the same compounds, solutions, and layout; and will be combined later; Tissue culture plates were covered and placed in the 37° C. microplate chamber for 20 min.
VEGF solution was prepared: 110 l VEGF stock+10.89 ml DM=100 ng/ml VEGF
VEGF solution or DM (for reference wells) was added to the tissue culture plates, 25 μl/well.
Tissue culture plates were covered and placed in the 37° C. microplate chamber for 10 min.
RIPA buffer was prepared (240 l NaVO3 stock+240 l PIC stock+24 l NaF stock+23.496 ml RIPA base) and added to the tissue culture plates, 50 µl/well.
Tissue culture plates were covered and placed on a Labline plate shaker for 10 min (speed about 5).
Assay plates were washed twice with PBST.
Cell lysates from matching wells of each pair of tissue culture plates were combined to =200 µl/well, and were pipetted up and down to mix. Cell lysates were transferred to the assay plates using the same layouts, 170 µl/well.
Assay plates were covered with plate sealers and placed on a Labline plate shaker for 2 hr (speed about 5).
Assay plates were washed 5 times with PBST.
Biotin antibody solution was prepared (16 l biotin antibody stock+32 ml PBST=2000× dilution) and added to the assay plates, 150 µl/well.
Assay plates were covered with plate sealers and placed on a Labline plate shaker for 90 min
Streptavidin-HRP solution was prepared (16 l streptavidin-HRP stock+32 ml PBST=2000× dilution) and added to the assay plates, 150 µl/well.
Assay plates were covered with plate sealers and placed on a Labline plate shaker for 60 min
Substrate was added to the assay plates, 100 µl/well.
As assay plates developed, the plates were each monitored on a Molecular Devices Spectramax set to 650 nm, until the signal in the high control wells was around 0.6 OD and the signal in the negative control wells was around 0.1-0.15 OD.
Stop solution was added to the assay plates, 100 µl/well.
The plates were read on a Molecular Devices Spectramax set to 450 nm.
Data was calculated by Assay Explorer, using same-plate high control wells as 0% and reference standard wells as 100% inhibition of KDR phosphorylation. IC50 values were calculated by non-linear regression analysis of the concentration response data.
Target sequence in this assay (P35968 20-1356): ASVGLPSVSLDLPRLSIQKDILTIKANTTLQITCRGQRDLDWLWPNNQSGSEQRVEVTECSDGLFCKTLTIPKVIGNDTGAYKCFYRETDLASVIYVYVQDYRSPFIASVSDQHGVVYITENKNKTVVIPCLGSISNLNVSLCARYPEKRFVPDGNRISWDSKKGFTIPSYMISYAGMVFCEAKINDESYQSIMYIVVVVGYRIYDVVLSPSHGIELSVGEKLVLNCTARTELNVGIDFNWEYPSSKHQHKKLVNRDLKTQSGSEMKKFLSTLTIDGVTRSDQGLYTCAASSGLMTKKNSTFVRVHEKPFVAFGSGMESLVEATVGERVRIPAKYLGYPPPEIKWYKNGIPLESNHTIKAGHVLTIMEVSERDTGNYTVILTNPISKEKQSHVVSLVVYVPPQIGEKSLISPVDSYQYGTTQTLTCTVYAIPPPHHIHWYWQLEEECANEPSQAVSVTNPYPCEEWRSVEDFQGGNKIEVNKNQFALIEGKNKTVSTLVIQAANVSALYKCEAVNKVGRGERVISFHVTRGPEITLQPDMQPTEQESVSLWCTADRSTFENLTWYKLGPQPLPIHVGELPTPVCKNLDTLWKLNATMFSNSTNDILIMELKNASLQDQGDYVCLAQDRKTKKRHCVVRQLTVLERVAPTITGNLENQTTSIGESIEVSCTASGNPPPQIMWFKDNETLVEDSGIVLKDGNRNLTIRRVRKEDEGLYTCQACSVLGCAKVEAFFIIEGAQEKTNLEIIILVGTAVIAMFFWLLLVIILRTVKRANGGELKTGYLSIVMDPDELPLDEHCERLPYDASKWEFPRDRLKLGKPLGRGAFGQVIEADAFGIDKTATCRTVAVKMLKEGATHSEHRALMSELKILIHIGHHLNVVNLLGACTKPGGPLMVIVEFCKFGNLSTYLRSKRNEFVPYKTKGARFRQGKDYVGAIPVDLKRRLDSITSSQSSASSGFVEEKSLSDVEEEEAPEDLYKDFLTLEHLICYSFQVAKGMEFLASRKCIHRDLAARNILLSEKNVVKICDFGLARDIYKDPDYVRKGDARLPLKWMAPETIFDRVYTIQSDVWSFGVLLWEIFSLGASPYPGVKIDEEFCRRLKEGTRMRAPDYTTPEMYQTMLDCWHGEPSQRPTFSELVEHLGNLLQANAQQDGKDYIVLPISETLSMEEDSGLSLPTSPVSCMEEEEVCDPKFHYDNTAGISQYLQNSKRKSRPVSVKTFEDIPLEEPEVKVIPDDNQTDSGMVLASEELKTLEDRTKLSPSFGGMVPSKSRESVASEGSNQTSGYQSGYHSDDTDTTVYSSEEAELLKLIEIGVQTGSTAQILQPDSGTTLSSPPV

Aurora A = molecular target: T3, Aurora A (Homo sapiens, UniProt O14965); assay: Aurora A enzyme inhibition (time-resolved fluorescence, STK substrate-2); type: biochemical; conditions: 1 mM ATP
T3 sequence (O14965 1-403): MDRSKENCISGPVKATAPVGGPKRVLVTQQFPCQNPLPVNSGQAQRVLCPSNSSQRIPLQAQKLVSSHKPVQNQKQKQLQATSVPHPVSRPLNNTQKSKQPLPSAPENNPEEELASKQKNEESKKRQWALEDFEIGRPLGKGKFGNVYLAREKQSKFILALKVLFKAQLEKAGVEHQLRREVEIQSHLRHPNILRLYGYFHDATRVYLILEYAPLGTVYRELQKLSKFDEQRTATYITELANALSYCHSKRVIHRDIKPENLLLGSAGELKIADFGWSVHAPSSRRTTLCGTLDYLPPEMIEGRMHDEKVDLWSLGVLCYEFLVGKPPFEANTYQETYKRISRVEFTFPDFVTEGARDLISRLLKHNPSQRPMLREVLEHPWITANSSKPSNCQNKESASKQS
In short: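 Active enzyme incubated 1 h with biotinylated STK substrate-2, 1 mM ATP and inhibitor in Hepes pH 7.4 with MgCl2, orthovanadate and Triton X-100. EDTA stop; phosphopeptide detected by Eu-cryptate anti-phospho-STK/SA-XL665 TR-FRET (665/615 nm ratio); IC50 by exponential fit.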

T2 sequence (Q96GD4 whole entry, the tested form may be a part): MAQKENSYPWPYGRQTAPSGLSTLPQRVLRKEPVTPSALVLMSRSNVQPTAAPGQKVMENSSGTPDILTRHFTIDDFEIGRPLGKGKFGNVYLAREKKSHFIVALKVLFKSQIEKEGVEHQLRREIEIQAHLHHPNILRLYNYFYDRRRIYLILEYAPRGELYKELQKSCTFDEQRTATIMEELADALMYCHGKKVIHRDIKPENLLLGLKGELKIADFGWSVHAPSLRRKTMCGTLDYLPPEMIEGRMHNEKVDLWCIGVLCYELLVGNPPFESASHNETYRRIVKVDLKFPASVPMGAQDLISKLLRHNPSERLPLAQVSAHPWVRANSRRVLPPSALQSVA
T2 sequence (Q9NQS7 826-918 partner limits assumed): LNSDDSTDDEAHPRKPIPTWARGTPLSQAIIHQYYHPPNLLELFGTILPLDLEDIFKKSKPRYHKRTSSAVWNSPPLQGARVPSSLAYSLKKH

Cn1cc(Nc2ncc(C(N)=O)c(NC3C4C=CC(C4)C3C(N)=O)n2)cn1 (mixture of isomers) [Example 86, 4-{[(1S,2S,3R,4R)-3-carbamoylbicyclo[2.2.1]hept-5-ene-2-yl]amino}-2-[(1-methyl-1H-pyrazol-4-yl)amino]pyrimidine-5-carboxamide and 4-{[(1R,2R,3S,4S)-3-carbamoylbicyclo[2.2.1]hept-5-ene-2-yl]amino}-2-[(1-methyl-1H-pyrazol-4-yl)amino]pyrimidine-5-carboxamide]
Ki (KDR [1]): 100 to 1000 nM
Ki (Aurora B): < 100 nM
IC50 (KDR [2]): 100 to 1000 nM
Ki (Aurora A): < 100 nM

CCn1cc(Nc2ncc(C(N)=O)c(NC3C4C=CC(C4)C3C(N)=O)n2)cn1 (mixture of isomers) [Example 87, 4-{[(1S,2S,3R,4R)-3-carbamoylbicyclo[2.2.1]hept-5-ene-2-yl]amino}-2-[(1-ethyl-1H-pyrazol-4-yl)amino]pyrimidine-5-carboxamide and 4-{[(1R,2R,3S,4S)-3-carbamoylbicyclo[2.2.1]hept-5-ene-2-yl]amino}-2-[(1-ethyl-1H-pyrazol-4-yl)amino]pyrimidine-5-carboxamide]
Ki (KDR [1]): < 100 nM
Ki (Aurora B): < 100 nM
IC50 (KDR [2]): 100 to 1000 nM
Ki (Aurora A): < 100 nM

Cn1cc(Nc2ncc(Cl)c(Nc3ccccc3CO)n2)cn1 [Example 145, [2-({5-chloro-2-[(1-methyl-1H-pyrazol-4-yl)amino]pyrimidin-4-yl}amino)phenyl]methanol]
Ki (KDR [1]): < 100 nM
Ki (Aurora B): < 100 nM
IC50 (KDR [2]): 100 to 1000 nM
Ki (Aurora A): < 100 nM

Cn1cc(Nc2ncc(Cl)c(N[C@@H]3CC=CC[C@@H]3C(N)=O)n2)cn1.Cn1cc(Nc2ncc(Cl)c(N[C@H]3CC=CC[C@H]3C(N)=O)n2)cn1 (mixture of isomers) [Example 146, (1S,6R)-6-({5-chloro-2-[(1-methyl-1H-pyrazol-4-yl)amino]pyrimidin-4-yl}amino)cyclohex-3-ene-1-carboxamide and (1R,6S)-6-({5-chloro-2-[(1-methyl-1H-pyrazol-4-yl)amino]pyrimidin-4-yl}amino)cyclohex-3-ene-1-carboxamide]
Ki (KDR [1]): 100 to 1000 nM
Ki (Aurora B): < 100 nM
IC50 (KDR [2]): 100 to 1000 nM
Ki (Aurora A): < 100 nM

(1S,2S,3R,4R)-3-[(5-bromo-2-{[1-(3-fluoro-4-methoxybenzyl)-1H-pyrazol-4-yl]amino}pyrimidin-4-yl)amino]bicyclo[2.2.1]hept-5-ene-2-carboxamide [Example 193]
Ki (KDR [1]): < 100 nM
Ki (Aurora B): < 100 nM
IC50 (KDR [2]): < 100 nM
Ki (Aurora A): < 100 nM

Cn1cc(Nc2ncc(Cl)c(Nc3ccccc3C(C)(C)O)n2)cn1 [Example 138, 2-[2-({5-chloro-2-[(1-methyl-1H-pyrazol-4-yl)amino]pyrimidin-4-yl}amino)phenyl]propan-2-ol]
Ki (KDR [1]): < 100 nM
Ki (Aurora B): < 100 nM
IC50 (KDR [2]): 100 to 1000 nM
Ki (Aurora A): < 100 nM

Cn1cc(Nc2ncc(Cl)c(Nc3ccc4[nH]ncc4c3)n2)cn1 [Example 175, 5-chloro-N^4-(1H-indazol-5-yl)-N^2-(1-methyl-1H-pyrazol-4-yl)pyrimidine-2,4-diamine]
Ki (KDR [1]): < 100 nM
Ki (Aurora B): < 100 nM
IC50 (KDR [2]): 100 to 1000 nM
Ki (Aurora A): < 100 nM

CCn1cc(Nc2ncc(Br)c(N[C@H]3[C@@H](C(N)=O)C[C@H]4C[C@@H]3C4(C)C)n2)cn1 [Example 183, (1R,2R,3S,5R)-2-({5-bromo-2-[(1-ethyl-1H-pyrazol-4-yl)amino]pyrimidin-4-yl}amino)-6,6-dimethylbicyclo[3.1.1]heptane-3-carboxamide]
Ki (KDR [1]): < 100 nM
Ki (Aurora B): < 100 nM
IC50 (KDR [2]): 100 to 1000 nM
Ki (Aurora A): < 100 nM

Cn1cc(Nc2ncc(Cl)c(Nc3ccccc3C3(O)CCOCC3)n2)cn1 [Example 133, 4-[2-({5-chloro-2-[(1-methyl-1H-pyrazol-4-yl)amino]pyrimidin-4-yl}amino)phenyl]tetrahydro-2H-pyran-4-ol]
Ki (KDR [1]): 100 to 1000 nM
Ki (Aurora B): < 100 nM
IC50 (KDR [2]): 100 to 1000 nM
Ki (Aurora A): < 100 nM

CCn1cc(Nc2nc(C)c(Cl)c(N[C@@H]3[C@H](C(N)=O)[C@H]4C=C[C@@H]3C4)n2)cn1.CCn1cc(Nc2nc(C)c(Cl)c(N[C@H]3[C@@H](C(N)=O)[C@@H]4C=C[C@H]3C4)n2)cn1 (mixture of isomers) [Example 126, (1S,2S,3R,4R)-3-({5-chloro-2-[(1-ethyl-1H-pyrazol-4-yl)amino]-6-methylpyrimidin-4-yl}amino)bicyclo[2.2.1]hept-5-ene-2-carboxamide and (1R,2R,3S,4S)-3-({5-chloro-2-[(1-ethyl-1H-pyrazol-4-yl)amino]-6-methylpyrimidin-4-yl}amino)bicyclo[2.2.1]hept-5-ene-2-carboxamide]
Ki (KDR [1]): 100 to 1000 nM
Ki (Aurora B): < 100 nM
IC50 (KDR [2]): 100 to 1000 nM
Ki (Aurora A): < 100 nM

Cc1c(Nc2ncc(Cl)c(N[C@H]3[C@@H](C(N)=O)C[C@H]4C[C@@H]3C4(C)C)n2)cnn1C [Example 184, (1R,2R,3S,5R)-2-({5-chloro-2-[(1,5-dimethyl-1H-pyrazol-4-yl)amino]pyrimidin-4-yl}amino)-6,6-dimethylbicyclo[3.1.1]heptane-3-carboxamide]
Ki (KDR [1]): < 100 nM
Ki (Aurora B): < 100 nM
IC50 (KDR [2]): 100 to 1000 nM
Ki (Aurora A): < 100 nM

OCCn1cc(Nc2ncc(Cl)c(Nc3ccc4[nH]ncc4c3)n2)cn1 [Example 180, 2-(4-{[5-chloro-4-(1H-indazol-5-ylamino)pyrimidin-2-yl]amino}-1H-pyrazol-1-yl)ethanol]
Ki (KDR [1]): < 100 nM
Ki (Aurora B): < 100 nM
IC50 (KDR [2]): 100 to 1000 nM
Ki (Aurora A): < 100 nM

Cc1nn(C)c(C)c1Nc1ncc(Br)c(N[C@H]2[C@@H](C(N)=O)[C@@H]3C=C[C@H]2C3)n1 [Example 128, (1S,2S,3R,4R)-3-({5-bromo-2-[(1,3,5-trimethyl-1H-pyrazol-4-yl)amino]pyrimidin-4-yl}amino)bicyclo[2.2.1]hept-5-ene-2-carboxamide]
Ki (KDR [1]): 100 to 1000 nM
Ki (Aurora B): 100 to 1000 nM
IC50 (KDR [2]): 100 to 1000 nM
Ki (Aurora A): 100 to 1000 nM
